# In patent US20110218188A1, “SUBSTITUTED (PYRIDYL)-AZINYLAMINE DERIVATIVES AS FUNGICIDES” (priority 2008, published 2011):
# Marks after values point to notes of the source that are not given here.
# Assay: Measurement of logP values by HPLC on reversed phase columns (EEC directive 79/831 Annex V.A8)
# Type: physicochemical
# Settings: pH 2.3
row,logP,Compound
1,1.96^[b],CN(C)C(=O)c1cccc(-c2ccnc(Nc3ccnc(Cl)c3)n2)n1 [Example A34]
2,2.21^[b],O=C(c1cccc(-c2ccnc(Nc3ccnc(Cl)c3)n2)n1)N1CCC1 [Example A35]
3,2.25^[b],CCN(C)C(=O)c1cccc(-c2ccnc(Nc3ccnc(Cl)c3)n2)n1 [Example A36]

# Same assay, conditions: pH 2.7
Compound,logP,chromatographic logP
CC(C)N(C)C(=O)c1cc(-c2ccnc(Nc3ccnc(Cl)c3)n2)ccn1 [Example A28],2.13,–
CCC(C)N(C)C(=O)c1cc(-c2ccnc(Nc3ccnc(Cl)c3)n2)ccn1 (centres unmarked) [Example A29],2.47,–
CC(C)=CCN(C)C(=O)c1cc(-c2ccnc(Nc3ccnc(Cl)c3)n2)ccn1 [Example A30],2.66,–
CN(CC1CC1)C(=O)c1cc(-c2ccnc(Nc3ccnc(Cl)c3)n2)ccn1 [Example A31],2.28,–
CN(C)C(=O)c1cc(-c2ccnc(Nc3ccnc(Cl)c3)n2)ccn1 [Example A32],1.69,–
CCN(CC)C(=O)c1cccc(-c2ccnc(Nc3ccnc(Cl)c3)n2)n1 [Example A33],2.6,–
"CCN(CC)C(=O)c1cc(-c2ccnc(Nc3ccc(C(C)(C)C)s3)n2)ccn1 [Example A39, 4-{2-[(5-tert-butyl-2-thienyl)amino]pyrimidin-4-yl}-N,N-diethylpyridine-2-carboxamide]",–,3.62
"CCN(CC)C(=O)c1cc(-c2nc(Nc3ccsc3)ncc2C)ccn1 [Example A41, N,N-diethyl-4-[5-methyl-2-(3-thienylamino)pyrimidin-4-yl]pyridine-2-carboxamide]",–,2.61
Cc1ccc(Nc2nccc(-c3ccnc(C(=O)N(C)C)c3)n2)s1 [Example A48],2.13,–
CN(CCC#N)C(=O)c1cc(-c2ncnc(Nc3cccc(F)c3)n2)ccn1 [Example B1],2.22,–
CCN(CC)C(=O)c1cc(-c2ncnc(Nc3cccc(F)c3)n2)ccn1 [Example B2],2.72,–
CCCN(C)C(=O)c1cc(-c2ncnc(Nc3cccc(F)c3)n2)ccn1 [Example B3],2.72,–
CN(CC1CC1)C(=O)c1cc(-c2ncnc(Nc3cccc(F)c3)n2)ccn1 [Example B4],2.82,–
CN(C)C(=O)c1cc(-c2ncnc(Nc3cccc(F)c3)n2)ccn1 [Example B5],2.13,–
CC(C)CN(C)C(=O)c1cc(-c2ncnc(Nc3cccc(F)c3)n2)ccn1 [Example B6],2.92,–
CCN(C)C(=O)c1cc(-c2ncnc(Nc3cccc(F)c3)n2)ccn1 [Example B7],2.4,–
CC(C)N(C)C(=O)c1cc(-c2ncnc(Nc3cccc(F)c3)n2)ccn1 [Example B8],2.67,–
COCCN(C)C(=O)c1cc(-c2ncnc(Nc3cccc(F)c3)n2)ccn1 [Example B9],2.26,–
CCN(C)C(=S)c1cc(-c2ncnc(Nc3cccc(F)c3)n2)ccn1 [Example B10],2.94,–
CCN(CC)C(=S)c1cc(-c2ncnc(Nc3cccc(F)c3)n2)ccn1 [Example B11],3.31,–
CN(CC1CC1)C(=S)c1cc(-c2ncnc(Nc3cccc(F)c3)n2)ccn1 [Example B12],3.42,–

Compound,logP,chromatographic logP
CCCN(C)C(=S)c1cc(-c2ncnc(Nc3cccc(F)c3)n2)ccn1 [Example B13],3.32,–
CN(CCC#N)C(=O)c1cc(-c2ncnc(Nc3ccc(F)cc3)n2)ccn1 [Example B14],2.14,–
CCN(CC)C(=O)c1cc(-c2ncnc(Nc3ccc(F)cc3)n2)ccn1 [Example B15],2.6,–
CCCN(C)C(=O)c1cc(-c2ncnc(Nc3ccc(F)cc3)n2)ccn1 [Example B16],2.62,–
CN(CC1CC1)C(=O)c1cc(-c2ncnc(Nc3ccc(F)cc3)n2)ccn1 [Example B17],2.73,–
CN(C)C(=O)c1cc(-c2ncnc(Nc3ccc(F)cc3)n2)ccn1 [Example B18],2.02,–
CC(C)CN(C)C(=O)c1cc(-c2ncnc(Nc3ccc(F)cc3)n2)ccn1 [Example B19],2.92,–
CCN(C)C(=O)c1cc(-c2ncnc(Nc3ccc(F)cc3)n2)ccn1 [Example B20],2.28,–
CC(C)N(C)C(=O)c1cc(-c2ncnc(Nc3ccc(F)cc3)n2)ccn1 [Example B21],2.55,–
COCCN(C)C(=O)c1cc(-c2ncnc(Nc3ccc(F)cc3)n2)ccn1 [Example B22],3.92,–
CCN(C)C(=S)c1cc(-c2ncnc(Nc3ccc(F)cc3)n2)ccn1 [Example B23],2.8,–
O=C(c1cc(-c2ncnc(Nc3cccc(Cl)c3)n2)ccn1)N1CCOCC1 [Example B116],2.39,–
CCCCN(C)C(=O)c1cc(-c2ncnc(Nc3cccc(Cl)c3)n2)ccn1 [Example B123],3.48,–
CCCN(CCC)C(=O)c1cc(-c2ncnc(Nc3cccc(Cl)c3)n2)ccn1 [Example B124],3.89,–
CCCN(CC)C(=O)c1cc(-c2ncnc(Nc3cccc(Cl)c3)n2)ccn1 [Example B125],3.46,–
CCCCN(CCC)C(=O)c1cc(-c2ncnc(Nc3cccc(Cl)c3)n2)ccn1 [Example B126],4.31,–
C=CCN(C)C(=O)c1cc(-c2ncnc(Nc3cccc(Cl)c3)n2)ccn1 [Example B127],2.96,–
CN(CCC#N)C(=O)c1cc(-c2ncnc(Nc3cccc(Cl)c3)n2)ccn1 [Example B129],2.51,–
CCCN(C)C(=O)c1cc(-c2ncnc(Nc3cccc(Cl)c3)n2)ccn1 [Example B132],3.06,–
CN(CC1CC1)C(=O)c1cc(-c2ncnc(Nc3cccc(Cl)c3)n2)ccn1 [Example B133],3.15,–
COC[C@H]1CCCN1C(=O)c1cc(-c2ncnc(Nc3cccc(Cl)c3)n2)ccn1 [Example B134],3.08,–

# The remaining lines, values ahead:
logP,chromatographic logP,Compound
2.8,–,COCC(C1CC1)N(C)C(=O)c1cc(-c2ncnc(Nc3ccc(F)cc3)n2)ccn1 (centres unmarked) [Example B24]
2.79,–,COC(=O)c1cc(-c2ncnc(Nc3cccc(Cl)c3)n2)ccn1 [Example B25]
–,3.32,"CC(=O)c1cc(-c2ncnc(Nc3cccc(Cl)c3)n2)ccn1 [Example B26, 1-(4-{4-[(3-chlorophenyl)amino]-1,3,5-triazin-2-yl}pyridin-2-yl)ethanone]"
–,4.23,"CO/N=C(\C)c1cc(-c2ncnc(Nc3cccc(Cl)c3)n2)ccn1 [Example B27, N-(3-chlorophenyl)-4-{2-[(1E)-N-methoxyethanimidoyl]pyridin-4-yl}-1,3,5-triazin-2-amine]"
2.88,–,O=C(c1cc(-c2ncnc(Nc3cccc(Cl)c3)n2)ccn1)N1CCCC1 [Example B28]
3.09,–,O=C(NCC1CCCO1)c1cc(-c2ncnc(Nc3cccc(Cl)c3)n2)ccn1 (centres unmarked) [Example B33]
3.79,–,CCC(=O)c1cc(-c2ncnc(Nc3cccc(Cl)c3)n2)ccn1 [Example B45]
3.05,–,O=C(NC1CC1)c1cc(-c2ncnc(Nc3cccc(Cl)c3)n2)ccn1 [Example B57]
2.27,–,CNN=C(C)c1cc(-c2ncnc(Nc3cccc(Cl)c3)n2)ccn1 [Example B75]
3.58,–,CC(=NNCC(F)(F)F)c1cc(-c2ncnc(Nc3cccc(Cl)c3)n2)ccn1 [Example B76]
3.02,–,CCOC(=O)CNN=C(C)c1cc(-c2ncnc(Nc3cccc(Cl)c3)n2)ccn1 [Example B77]
–,2.28,"NC(=NO)c1cc(-c2ncnc(Nc3cccc(Cl)c3)n2)ccn1 [Example B78, 4-{4-[(3-chlorophenyl)amino]-1,3,5-triazin-2-yl}-N′-hydroxypyridine-2-carboximidamide]"
–,2.5,"CC(=NNCCC#N)c1cc(-c2ncnc(Nc3cccc(Cl)c3)n2)ccn1 [Example B81, 3-{2-[1-(4-{4-[(3-chlorophenyl)amino]-1,3,5-triazin-2-yl}pyridin-2-yl)ethylidene]hydrazinyl}propanenitrile]"
4.97,–,CC(=NNc1ccc(Cl)cc1)c1cc(-c2ncnc(Nc3cccc(Cl)c3)n2)ccn1 [Example B82]
3.62,–,CC(C)NC(=O)c1cc(-c2ncnc(Nc3cccc(Cl)c3)n2)ccn1 [Example B91]
4.11,–,CCCCNC(=O)c1cc(-c2ncnc(Nc3cccc(Cl)c3)n2)ccn1 [Example B93]

logP,chromatographic logP,Compound
4.04,–,CCC(C)NC(=O)c1cc(-c2ncnc(Nc3cccc(Cl)c3)n2)ccn1 (centres unmarked) [Example B94]
3.35,–,CCC(CC#N)NC(=O)c1cc(-c2ncnc(Nc3cccc(Cl)c3)n2)ccn1 (centres unmarked) [Example B95]
4.39,–,CCOC1CCC(NC(=O)c2cc(-c3ncnc(Nc4cccc(Cl)c4)n3)ccn2)CC1 (centres unmarked) [Example B97]
–,2.08,"CCOC(=N)c1cc(-c2ncnc(Nc3cccc(Cl)c3)n2)ccn1 [Example B102, ethyl 4-{4-[(3-chlorophenyl)amino]-1,3,5-triazin-2-yl}pyridine-2-carboximidoate]"
–,2.92,"COCC(=O)ON=C(N)c1cc(-c2ncnc(Nc3cccc(Cl)c3)n2)ccn1 [Example B104, 4-{4-[(3-chlorophenyl)amino]-1,3,5-triazin-2-yl}-N′-[(methoxyacetyl)oxy]pyridine-2-carboximidamide]"
1.68,–,O=C(NCCN1CCOCC1)c1cc(-c2ncnc(Nc3cccc(Cl)c3)n2)ccn1 [Example B105]
4.12,–,CC(C)CC(=O)O/N=C(/N)c1cc(-c2ncnc(Nc3cccc(Cl)c3)n2)ccn1 [Example B110]
3.92,–,CC(C)=CC(=O)O/N=C(/N)c1cc(-c2ncnc(Nc3cccc(Cl)c3)n2)ccn1 [Example B111]
3.89,–,O=C(NC1CCC1)c1cc(-c2ncnc(Nc3cccc(Cl)c3)n2)ccn1 [Example B113]
1.9,–,CCN(CC)CC(C)NC(=O)c1cc(-c2ncnc(Nc3cccc(Cl)c3)n2)ccn1 (centres unmarked) [Example B114]
3.1,–,O=C(c1cc(-c2ncnc(Nc3cccc(Cl)c3)n2)ccn1)N1CCCCC1 [Example B115]
4.54,–,CCCC(C)NC(=O)c1cc(-c2ncnc(Nc3cccc(Cl)c3)n2)ccn1 (centres unmarked) [Example B118]
3.12,–,NC(=S)c1cc(-c2ncnc(Nc3cccc(Cl)c3)n2)ccn1 [Example B119]
4.34,–,CCCCCCN(C)C(=O)c1cc(-c2ncnc(Nc3cccc(Cl)c3)n2)ccn1 [Example B128]
3.06,–,CCN(CC)C(=O)c1cc(-c2ncnc(Nc3cccc(Cl)c3)n2)ccn1 [Example B130]
3.51,–,CC1CCN(C(=O)c2cc(-c3ncnc(Nc4cccc(Cl)c4)n3)ccn2)CC1 [Example B131]
